We go through 16 molecules from PubChem BioAssay AID328 (DTP/NCI, 2004).

In the experiment the test system is BDF1 mice, P388 leukemia ip, median survival T/C. The experiment can be described thus: NCI In Vivo Anticancer Drug Screen. Data for tumor model P388 Leukemia (intraperitoneal) in B6D2F1 (BDF1) mice. Conditions: endpoint: median survival time, higher = longer survival. The method in brief: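 Mice carrying the transplantable tumour receive compound or vehicle. Survival is followed in each arm, and the treated measure is divided by the vehicle measure.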

The mark [1] stands for this setting: dose: 50.0 mg/kg/injection, schedule: Q01DX009 (ip), vehicle: saline with Tween-80.
Setting [2] is: dose: 100.0 mg/kg/injection, schedule: Q01DX009 (ip), vehicle: saline with Tween-80.
[3] abbreviates: dose: 200.0 mg/kg/injection, schedule: Q04DX003 (ip), vehicle: saline with Tween-80.
Setting [4] is: dose: 25.0 mg/kg/injection, schedule: Q01DX009 (ip), vehicle: saline.
[5] abbreviates: dose: 25.0 mg/kg/injection, schedule: Q04DX003 (ip), vehicle: saline.
Setting [6] is: dose: 50.0 mg/kg/injection, schedule: Q01DX009 (ip), vehicle: saline.
[7] abbreviates: dose: 50.0 mg/kg/injection, schedule: Q04DX003 (ip), vehicle: saline with Tween-80.
Setting [8] is: dose: 100.0 mg/kg/injection, schedule: Q04DX003 (ip), vehicle: saline.
The mark [9] stands for this setting: dose: 100.0 mg/kg/injection, schedule: Q04DX003 (ip), vehicle: saline with Tween-80.
Where [10] appears, read: dose: 200.0 mg/kg/injection, schedule: Q01DX009 (ip), vehicle: saline with Tween-80.
Where [11] appears, read: dose: 100.0 mg/kg/injection, schedule: Q01DX009 (ip), vehicle: saline.
[12] abbreviates: dose: 200.0 mg/kg/injection, schedule: Q01DX009 (ip), vehicle: saline.
The mark [13] stands for this setting: dose: 200.0 mg/kg/injection, schedule: Q04DX003 (ip), vehicle: saline.
Where [14] appears, read: dose: 400.0 mg/kg/injection, schedule: Q04DX003 (ip), vehicle: saline.

“And” between values parts separate entries of the source, which are not always exact repeats. Equal entries are not always repeated. Toxic doses and inconclusive results are not listed.

For the molecule `CCOC(=O)NCCCCCCNC(=O)OCC`, the T/C runs as follows: under setting [1], 95 % of control; under setting [2], 100 % of control; under setting [3], 90 % of control.

In the case of `C/C(=N\[N+](C)(C)C)c1cccc(C)n1`, the T/C under setting [4] was 100 % of control; the T/C under setting [5] was 108 % of control; the T/C (dose: 33.0 mg/kg/injection, schedule: Q04DX003 (ip), vehicle: saline with Tween-80) is 100 % of control; the T/C (dose: 33.0 mg/kg/injection, schedule: Q04DX003 (ip), vehicle: saline) is 104 % of control; the T/C under setting [6] was 95 % of control; the T/C under setting [7] is 100 % of control. Also, the T/C runs as follows: (dose: 50.0 mg/kg/injection, schedule: Q04DX003 (ip), vehicle: saline) 95 % of control; (dose: 75.0 mg/kg/injection, schedule: Q04DX003 (ip), vehicle: saline with Tween-80) 100 % of control; (dose: 75.0 mg/kg/injection, schedule: Q04DX003 (ip), vehicle: saline) 100 % of control; under setting [8], 108 % of control.

Turning to `CCN(CC)CCCC(C)NC(=O)c1ccc(Cl)nc1` (stereo not drawn), the T/C reads like this: (dose: 37.5 mg/kg/injection, schedule: Q01DX009 (ip), vehicle: saline with Tween-80) 107 % of control; under setting [1], 113 % of control; under setting [7], 103 % of control; (dose: 75.0 mg/kg/injection, schedule: Q01DX009 (ip), vehicle: saline with Tween-80) 96 % of control; under setting [9], 107 % of control; (dose: 150.0 mg/kg/injection, schedule: Q01DX009 (ip), vehicle: saline with Tween-80) 117 % of control. The T/C by setting is: under setting [10], 97 % of control; under setting [3], 110 % of control.

As for `Brc1ncnc2nc[nH]c12`, the T/C was 105 % of control (dose: 100.0 mg/kg/injection, schedule: Q01DX009 (ip), vehicle: saline sonified); 100 % of control (dose: 100.0 mg/kg/injection, schedule: Q04DX003 (ip), vehicle: saline sonified); 111 % of control (dose: 200.0 mg/kg/injection, schedule: Q01DX009 (ip), vehicle: saline sonified); 105 % of control (dose: 200.0 mg/kg/injection, schedule: Q04DX003 (ip), vehicle: saline sonified); 116 % of control (dose: 400.0 mg/kg/injection, schedule: Q01DX009 (ip), vehicle: saline sonified); 100 % of control (dose: 400.0 mg/kg/injection, schedule: Q04DX003 (ip), vehicle: saline sonified).

Turning to `N#Cc1cn(C2OC(CO)C(O)C2O)c2nc(Cl)nc(N)c12` (stereo not drawn), the T/C (dose: 6.25 mg/kg/injection, schedule: Q04DX003 (ip), vehicle: saline) is 112 % of control; the T/C (dose: 12.5 mg/kg/injection, schedule: Q04DX003 (ip), vehicle: saline) is 166 % of control; the T/C under setting [5] was 166 % of control.

On to `Cc1ccc(S(=O)(=O)Nc2ccc([N+](=O)[O-])cc2[N+](=O)[O-])cc1`, for which the T/C reads like this: (dose: 25.0 mg/kg/injection, schedule: Q01DX009 (ip), vehicle: saline with Tween-80) 95 % of control; under setting [1], 92 % of control.

In the case of `NCCCCNC(=O)c1csc(-c2csc(CCNC(=O)c3ccccc3)n2)n1`, the T/C (dose: 8.0 mg/kg/injection, schedule: Q01DX009 (ip), vehicle: saline) is 100 % of control; the T/C (dose: 16.0 mg/kg/injection, schedule: Q01DX009 (ip), vehicle: saline) is 100 % of control; the T/C (dose: 32.0 mg/kg/injection, schedule: Q01DX009 (ip), vehicle: saline) is 100 % of control; the T/C (dose: 64.0 mg/kg/injection, schedule: Q01DX009 (ip), vehicle: saline) is 110 % of control.

For the molecule `O=[N+]([O-])c1cc([N+](=O)[O-])c2ccc(S(=O)(=O)O)cc2c1O`, the T/C runs as follows: (dose: 6.25 mg/kg/injection, schedule: Q04DX002 (ip), vehicle: saline) 106 % of control; (dose: 12.5 mg/kg/injection, schedule: Q04DX002 (ip), vehicle: saline) 101 % of control; (dose: 25.0 mg/kg/injection, schedule: Q04DX002 (ip), vehicle: saline) 105 % of control.

Consider `COc1ccc(CC2c3cc(OC)c(OC)cc3CCN2C(C)=O)cc1OC` (stereo not drawn), for which the T/C runs as follows: (dose: 50.0 mg/kg/injection, schedule: Q01DX005 (ip), vehicle: saline with Tween-80) 90 % of control; (dose: 200.0 mg/kg/injection, schedule: Q01DX005 (ip), vehicle: saline with Tween-80) 88 % of control.

Consider `COc1cc(N2CCOCC2)ccc1[N+](=O)[O-]`, for which the T/C runs as follows: under setting [11], 91 % of control; under setting [8], 109 % of control; under setting [12], 100 % of control; under setting [13], 104 % of control; under setting [14], 95 % of control.

`CCCCNC=O`: the T/C is 91 % of control under setting [4]; 100 % of control under setting [6]; 100 % of control (dose: 100.0 mg/kg/injection, schedule: Q01DX001 (ip), vehicle: saline); 100 % of control and 104 % of control under setting [11]; 95 % of control under setting [8]; 100 % of control (dose: 200.0 mg/kg/injection, schedule: Q01DX001 (ip), vehicle: saline). The T/C is 104 % of control under setting [12]; 95 % of control under setting [13]; 100 % of control (dose: 400.0 mg/kg/injection, schedule: Q01DX001 (ip), vehicle: saline); 104 % of control (dose: 400.0 mg/kg/injection, schedule: Q01DX009 (ip), vehicle: saline); 104 % of control under setting [14].

As for `CCOC(=O)C(C(=O)OCC)=C(C#N)c1c[nH]c2ccccc12`, the T/C (dose: 12.5 mg/kg/injection, schedule: Q01DX009 (ip), vehicle: Klucel (hydroxypropylcellulose) (HPC)) is 90 % of control; the T/C (dose: 25.0 mg/kg/injection, schedule: Q01DX009 (ip), vehicle: Klucel (hydroxypropylcellulose) (HPC)) is 104 % of control; the T/C (dose: 50.0 mg/kg/injection, schedule: Q01DX009 (ip), vehicle: Klucel (hydroxypropylcellulose) (HPC)) is 104 % of control; the T/C (dose: 100.0 mg/kg/injection, schedule: Q04DX003 (ip), vehicle: Klucel (hydroxypropylcellulose) (HPC)) was 95 % of control; the T/C (dose: 200.0 mg/kg/injection, schedule: Q04DX003 (ip), vehicle: Klucel (hydroxypropylcellulose) (HPC)) is 100 % of control; the T/C (dose: 400.0 mg/kg/injection, schedule: Q04DX003 (ip), vehicle: Klucel (hydroxypropylcellulose) (HPC)) is 109 % of control.

`CC(=O)OCCN1CCN(CCCN2c3ccccc3Sc3ccc(C(F)(F)F)cc32)CC1`: the T/C is 104 % of control (dose: 0.69 mg/kg/injection, schedule: Q01DX009 (ip), vehicle: saline); 104 % of control (dose: 1.04 mg/kg/injection, schedule: Q01DX009 (ip), vehicle: saline); 120 % of control (dose: 1.56 mg/kg/injection, schedule: Q01DX009 (ip), vehicle: saline); 108 % of control (dose: 2.34 mg/kg/injection, schedule: Q01DX009 (ip), vehicle: saline); 117 % of control (dose: 25.0 mg/kg/injection, schedule: Q04DX003 (ip), vehicle: saline with Tween-80); 91 % of control under setting [7].

As to `ClCCN=Cc1ccc(Cl)cc1`, the T/C under setting [2] was 116 % of control; the T/C under setting [10] is 111 % of control; the T/C (dose: 400.0 mg/kg/injection, schedule: Q01DX009 (ip), vehicle: saline with Tween-80) is 120 % of control.

As to `O=S1(=O)CC(S(=O)(=O)c2ccccc2)C1`, the T/C is 99 % of control (dose: 100.0 mg/kg/injection, schedule: Q01DX001 (ip), vehicle: saline with Tween-80); 103 % of control (dose: 200.0 mg/kg/injection, schedule: Q01DX001 (ip), vehicle: saline with Tween-80); 100 % of control (dose: 400.0 mg/kg/injection, schedule: Q01DX001 (ip), vehicle: saline with Tween-80).

Regarding `N#CC(CC(=O)OCc1ccccc1)NC(=O)OCc1ccccc1` (stereo not drawn), the T/C under setting [9] was 95 % of control; the T/C under setting [3] is 90 % of control; the T/C (dose: 400.0 mg/kg/injection, schedule: Q04DX003 (ip), vehicle: saline with Tween-80) is 100 % of control.
